Literature values, collected in PMC7904233 (Journal of medicinal chemistry, 2020).

Test system: EBOV Zaire
Conditions: in vivo; cited from earlier work

Row | Structure (SMILES) | mouse survival
1 | CN(C)CCOc1ccc(/C(=C(/CCCl)c2ccccc2)c2ccccc2)cc1 [Compound 1, Toremifene] | 50%
2 | CCN(CC)CCOc1ccc(C(=C(Cl)c2ccccc2)c2ccccc2)cc1 [clomiphene] | 90%
